≈ marks a conversion by molar mass, not a printed value.
Columns and labels:
[1] = molecular target: T1, KasA (Mycobacterium tuberculosis, UniProt P9WQD9); test: KasA-MabA coupled assay, NADPH at […] nm; format: biochemical; conditions: read-out: % inhibition at 25 μM
T1 sequence (P9WQD9 1-416): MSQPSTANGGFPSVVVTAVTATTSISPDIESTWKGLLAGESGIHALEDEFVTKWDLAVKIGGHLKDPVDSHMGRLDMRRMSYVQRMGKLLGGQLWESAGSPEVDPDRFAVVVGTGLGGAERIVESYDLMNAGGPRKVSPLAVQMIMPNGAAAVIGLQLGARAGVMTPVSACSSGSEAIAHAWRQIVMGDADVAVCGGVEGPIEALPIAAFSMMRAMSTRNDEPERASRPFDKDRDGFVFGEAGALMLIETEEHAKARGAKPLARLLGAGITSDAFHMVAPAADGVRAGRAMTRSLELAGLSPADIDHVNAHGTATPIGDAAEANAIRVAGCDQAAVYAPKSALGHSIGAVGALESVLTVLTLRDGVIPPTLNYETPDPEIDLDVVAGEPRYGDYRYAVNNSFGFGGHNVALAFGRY

[2] = molecular target: T1, KasA; test: microscale thermophoresis, RED-NHS labelled KasA; format: binding
[3] = system: M. tuberculosis H37Rv; test: microbe, parasite or virus in culture; conditions: Mycobacterium tuberculosis, 192 h, read-out: Mtb MIC (µM)
[4] = molecular target: T2, MabA (Mycobacterium tuberculosis, UniProt P9WGT3); test: biochemical; conditions: read-out: % of control remaining
T2 sequence (P9WGT3 whole entry): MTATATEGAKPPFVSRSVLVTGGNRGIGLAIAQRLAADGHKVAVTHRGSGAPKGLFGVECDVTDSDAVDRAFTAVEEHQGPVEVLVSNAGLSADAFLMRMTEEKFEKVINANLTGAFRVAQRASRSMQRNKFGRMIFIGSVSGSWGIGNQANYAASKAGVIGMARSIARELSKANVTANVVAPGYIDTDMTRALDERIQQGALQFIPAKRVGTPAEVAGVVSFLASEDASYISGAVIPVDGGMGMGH

[5] = molecular target: T1, KasA; test: biochemical; conditions: read-out: % KasA Inhibition at 25 µM Compound
[6] = molecular target: T2, MabA; test: MabA NADPH oxidation at […] nm; format: biochemical

SMILES	inhibition at 25 µM [1]	Kd [2]	MIC [3]	remaining activity at 25 µM [4]	inhibition at 25 µM [5]	IC50 [6]
O=C(Nc1nc(-c2ccccn2)cs1)c1cc(-c2ccccc2)nc2ccc(Br)cc12 [JSF-5071, 6-bromo-2-phenyl-N-(4-(pyridin-2-yl)thiazol-2-yl)quinoline-4-carboxamide]	12.7 ± 4.8%	4.78 ± 1.3 µM				
O=C(Nc1nc(-c2ccccn2)cs1)c1cc(-c2ccccc2)nc2ccc(Br)cc12 [Z29466477]			0.12 µM (≈ 0.0585 µg/mL)	92.1 ± 16.2%	15.3 ± 12.8%	
O=C(Nc1ccc(S(=O)(=O)Nc2cccc(C(F)(F)F)c2)cc1)c1cc2ccccc2oc1=O [Z31753778]			0.78 µM (≈ 0.381 µg/mL)	97.9 ± 14.6%	12 ± 8.8%	
O=C(C1=C2SC=C(c3ccccc3)N2CCCC1)c1cc(-c2ccccc2Cl)nc2ccccc12 [Z56802551]			12 µM (≈ 5.94 µg/mL)	104 ± 22.4%	15.6 ± 11.1%	
Cc1ccc(-c2cc(C(=O)N3CCC(C(=O)Nc4ccc5c(c4)OCO5)CC3)c3ccccc3n2)cc1 [Z99494139]			1.5 µM (≈ 0.74 µg/mL)	101 ± 20.4%	11.5 ± 7%	
O=C(Nc1ccc2c(c1)OCO2)C1CCN(C(=O)c2cc(-c3ccc(F)cc3)nc3ccccc23)CC1 [Z99494149]			3.1 µM (≈ 1.54 µg/mL)	95.5 ± 15%	12 ± 8.8%	
O=C(c1cc(-c2ccc(F)cc2)nc2ccccc12)N1CCC(NS(=O)(=O)c2cccs2)CC1 [Z212116604]			12 µM (≈ 5.95 µg/mL)	99.4 ± 15%	14.7 ± 9.6%	
O=C(Nc1nc(-c2cccc(C(F)(F)F)c2)cs1)C1CCN(C(=O)c2ccc(F)cc2)CC1 [Z318114792]			12 µM (≈ 5.73 µg/mL)	102 ± 16.8%	4.72 ± 3%	
O=C(Nc1ccc(O)cc1)C1CCN(C(=O)c2cccc(Oc3cccc(C(F)(F)F)c3)c2)CC1 [Z979305278]			12 µM (≈ 5.81 µg/mL)	97.8 ± 16.3%	31.2 ± 9.3%	
C(=N\Nc1nc(-c2ccccc2)c2ccccc2n1)/c1cccc2cccnc12 [Z1033301210]			12 µM (≈ 4.51 µg/mL)	68.4 ± 16.8%	46.7 ± 12.5%	> 100 µM
Clc1ccc(-c2cc(Nc3ccccc3Cl)nc3ccccc23)cc1 [Z1143441182]			12 µM (≈ 4.38 µg/mL)	105 ± 19.7%	13.9 ± 12%	
Cc1ccc(-c2cc(-c3c(O)nc4ccccc4c3-c3ccccc3)nc3ccccc23)cc1 [Z1702969146]			12 µM (≈ 5.26 µg/mL)	101 ± 17.6%	27.1 ± 8.1%	

From article doi:10.1101/2025.02.03.636334v1 (biorxiv, 2025)
